Test results taken from publication PMC11739509, “Transport and inhibition of the sphingosine-1-phosphate exporter SPNS2” (Nature Communications, 2025).

Tests used:
[1] = target: T1, SPNS2 (Homo sapiens, UniProt Q8IVW8); experiment: S1PR3-coupled S1P export assay in CHO cells; type: cell-based; design: untagged wild type SPNS2 overexpressed with SphK1 in CHO-K1 cells
T1 sequence (Q8IVW8 1-549): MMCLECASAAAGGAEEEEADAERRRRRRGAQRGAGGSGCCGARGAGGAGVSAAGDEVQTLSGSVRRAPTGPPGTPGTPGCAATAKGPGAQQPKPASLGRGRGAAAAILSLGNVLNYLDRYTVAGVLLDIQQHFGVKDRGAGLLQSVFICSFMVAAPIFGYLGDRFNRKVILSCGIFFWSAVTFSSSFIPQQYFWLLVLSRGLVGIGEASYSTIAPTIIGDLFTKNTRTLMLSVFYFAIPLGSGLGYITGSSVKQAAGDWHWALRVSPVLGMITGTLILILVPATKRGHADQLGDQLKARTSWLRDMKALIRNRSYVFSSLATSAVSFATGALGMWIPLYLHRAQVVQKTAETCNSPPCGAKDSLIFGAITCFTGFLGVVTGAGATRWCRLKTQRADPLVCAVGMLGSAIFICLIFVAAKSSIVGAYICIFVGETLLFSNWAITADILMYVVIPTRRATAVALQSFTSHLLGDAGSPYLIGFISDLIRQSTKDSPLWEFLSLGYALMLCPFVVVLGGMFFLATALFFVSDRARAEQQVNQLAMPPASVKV

[2] = target: T1, SPNS2; experiment: S1PR3-coupled S1P export assay; R200S mutant inactive; type: cell-based; design: untagged wild type SPNS2 overexpressed with SphK1 in CHO-K1 cells
[3] = target: T1, SPNS2; experiment: cryo-EM structure at […] Å (detergent modeled as dodecyl glucoside; mixture of DDM and S1P not excluded); type: binding; design: full-length human SPNS2; residues 1-99, 287-296 and 352-358 not resolved; with nanobody NbD12
[4] = target: T2, Biotinylated SPNS2 (full-length, codon-optimized, C-terminal AVI and Flag tag) (Homo sapiens, UniProt Q8IVW8, biotin (AVI tag, BirA co-expressed)); experiment: SPR; Biacore 8K; biotinylated SPNS2 immobilised on SA sensor chip (600 to 800 RU); nanobody series 0 to 1 or 10 uM injected; 20 mM HEPES pH 7.5, 150 mM NaCl, 0.026% DDM, 0.01% fatty acid free BSA; 25 °C; 1:1 interaction model; conditions: both partners purified
T2 construct: SPNS2, full-length codon-optimized, in the in-house baculovirus vector pD-INS3; The species is not repeated in the paragraph on this construct; also called Biotinylated SPNS2 protein; source: Sf9 cells co-infected with SPNS2 and BirA baculovirus, biotin in the medium; purified in DDM or LMNG (Anti-Flag M2 resin, SEC); not shown: AVI, C-terminal, kept

`CCCCCCCCCCc1ccc2nc(NC[C@H]3CCNC3)oc2c1` [33p, 6-decyl-N-[[(3S)-pyrrolidin-3-yl]methyl]-1,3-benzoxazol-2-amine] showed an IC50 [1] of 1900 ± 320 nM.

For `CCCCCCCCCCCCC/C=C/[C@@H](O)[C@@H](N)COP(=O)(O)O` [Sphingosine-1-phosphate], the “S1PR3-coupled S1P export assay; R200S mutant inactive” value [2] was “Validating this assay, the SPNS2 mutation R200S shows no S1P transport activity”.

`CCCCCCCCCCCCO[C@@H]1O[C@H](CO)[C@@H](O[C@H]2O[C@H](CO)[C@@H](O)[C@H](O)[C@H]2O)[C@H](O)[C@H]1O` [n-dodecyl-β-D-maltopyranoside] was tested, and the “cryo-EM structure at 3.7 Å (detergent modeled as dodecyl glucoside); mixture of D” value [3] was “the unknown density fits the acyl chain and first glucose of n-dodecyl-β-D-maltopyranoside”.

B1: Nanobody D12 (NbD12) (VHH)
VHH: QVQLVESGGGLVQAGGSLRLSCAASGRLLSWYDMAWFRQAPGKEREFVAAVTSTGAGTHYVDSVKGRFTISRVNAKNTMYLQMNSLKPEDTAVYYCAAANTRLTALSLRTTTGSWAYWGKGTPVTVSS
notes: Raised by immunising alpacas with SPNS2 and selected by phage display; Subcloned into pBXNP (Addgene 110098) modified to carry a 1x FLAG tag upstream of the 10x His tag; The FLAG tag is used for capture and detection in the co-IP and the immunofluorescence; source: E. coli MC1061 periplasm, purified
B1 gave a Kd [4] of 7.75 nM.
